Consider 20 compounds from patent US9315475B2 (MERCK SHARP & DOHME CORP., priority 2011, dated 2016).

Where a name gives a salt, the structure may show the parent alone.

A word on the EC50: it is the concentration that produces a half-maximal response.

One test deals with T1, wildtype HIV-1 protease (Human immunodeficiency virus type 1 group M subtype B, UniProt P04585).
T1 construct: the wildtype HIV-1 protease (which was expressed in Escherichia coli); made in house; host or cells: Escherichia coli
Kind of test: Assay for inhibition of microbial expressed HIV protease (Pepcleav). The test is classed as biochemical. Particulars: wild type HIV-1 protease expressed in E. coli, peptide substrate, pH 5.5; mean of at least two independent experiments; read-out: Pepcleav. In short, it runs like this: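 E. coli-expressed wild-type HIV-1 protease (20 pM) preincubated 30 min at room temperature with inhibitor in pH 5.5 sodium acetate/NaCl/BSA buffer, then 400 μM Val-Ser-Gln-Asn-(βnaphthyl)Ala-Pro-Ile-Val added for 1 h at 30 °C. Quenched with formic acid; product quantified by LC-MS/MS peak area, indinavir internal standard.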

Another test deals with HIV-1 (H9IIIB strain). Kind of test: Antiviral acute infection assay in cell culture (Spread). The test is classed as cell-based. Conditions: Human immunodeficiency virus 1, T-lymphoid, HIV-1 H9IIIB infection of MT-4 human T-lymphoid cells in 10% FBS; mean of at least two independent experiments. An excerpt: Antiviral Assays in Cell Culture (“Spread”)
Acute Infection Assay (“Spread”) data were generated using HIV-1 (H9IIIB strain) infection of MT-4 human T-lymphoid cells in 10% FBS, and according to the methods disclosed by J. P. Vacca et al, “L-735,524: An orally bioavailable human immunodeficiency virus type 1 protease inhibitor,” Proc. Natl. Acad. Sci. USA, Vol. 91, pp. 4096-4100 (April 1994).

Regarding `COC(=O)N[C@H](C(=O)Nc1cccc(F)c1CC[C@@H]1CN[C@H](COC(=O)NCC(F)(F)F)CO1)[C@H](c1ccccc1)c1ccc(F)c(F)c1` [Example 294, (βR)-β-(3,4-difluorophenyl)-N-(3-fluoro-2-{2-[(2R,5S)-5-({[(2,2,2-trifluoroethyl)carbamoyl]oxy}methyl)morpholin-2-yl]ethyl}phenyl)-Nα-(methoxycarbonyl)-L-phenylalaninamide], the IC50 at wildtype HIV-1 protease is 3.8 nM. The compound also gave an EC50 with HIV-1 (H9IIIB strain) of 14 nM.

Take `COC(=O)N[C@H](C(=O)Nc1cncc(F)c1CC[C@@H]1CN[C@H](COC(=O)NCC(F)(F)F)CO1)[C@@H](c1ccc(F)cc1)c1ccc(F)c(F)c1` [Example 288]: the IC50 on wildtype HIV-1 protease amounted to 3.2 nM. Also, the response in the test with HIV-1 (H9IIIB strain) was half-maximal at 16 nM (EC50).

With `COc1ccc([C@H](c2ccc(F)cc2)[C@H](N)C(=O)Nc2cncc(F)c2CC[C@@H]2CN[C@H](COC(=O)NCC(F)(F)F)CO2)cc1` [Example 250, (βR)-β-(4-fluorophenyl)-N-(5-fluoro-4-{2-[(2R,5S)-5-({[(2,2,2-trifluoroethyl)carbamoyl]oxy}methyl)morpholin-2-yl]ethyl}pyridin-3-yl)-O-methyl-L-tyrosinamide], at wildtype HIV-1 protease, the IC50 is 8.3 nM. Besides, in the test with HIV-1 (H9IIIB strain), the EC50 was 63 nM.

For `COC(=O)N[C@H](C(=O)Nc1cncc(F)c1CC[C@@H]1CN[C@H](COC(=O)NCC(F)(F)F)CO1)[C@H](c1ccccc1)c1ccc(OC(F)(F)F)cc1` [Example 291, (βR)-N-(5-fluoro-4-{2-[(2R,5S)-5-({[(2,2,2-trifluoroethyl)carbamoyl]oxy}methyl)morpholin-2-yl]ethyl}pyridin-3-yl)-Nα-(methoxycarbonyl)-β-phenyl-O-(trifluoromethyl)-L-tyrosinamide], the IC50 at wildtype HIV-1 protease was 28 nM. In the test with HIV-1 (H9IIIB strain), this compound showed an EC50 of 110 nM.

On to `O=C(NCC(F)(F)F)OC[C@@H]1CO[C@H](CCc2c(F)cncc2NC(=O)[C@@H](NC(=O)OC2CCCC2)C(c2ccc(F)cc2)c2ccc(F)cc2)CN1` [Example 278, Nα-[(cyclopentyloxy)carbonyl]-4-fluoro-β-(4-fluorophenyl)-N-(5-fluoro-4-{2-[(2R,5S)-5-({[(2,2,2-trifluoroethyl)carbamoyl]oxy}methyl)morpholin-2-yl]ethyl}pyridin-3-yl)-L-phenylalaninamide], for which the IC50 at wildtype HIV-1 protease was 3.2 nM. Also, the EC50 with HIV-1 (H9IIIB strain) turned out to be 38 nM.

Take `N[C@H](C(=O)Nc1cncc(F)c1CC[C@@H]1CN[C@H](COC(=O)NCc2ccc3ccccc3n2)CO1)C(c1ccc(F)cc1)c1ccc(F)cc1` [Example 243, {(3S,6R)-6-[2-(3-fluoro-5-{[4-fluoro-β-(4-fluorophenyl)-L-phenylalanyl]amino}pyridin-4-yl)ethyl]morpholin-3-yl}methyl (quinolin-2-ylmethyl)carbamate]: the IC50 on wildtype HIV-1 protease is 24 nM. In the test with HIV-1 (H9IIIB strain), the EC50 was 240 nM.

Take `COC(=O)N[C@H](C(=O)Nc1cncc(F)c1CC[C@@H]1CN[C@H](COC(=O)NCC(F)(F)F)CO1)C(c1cccc(F)c1)c1cccc(F)c1` [Example 280, 3-fluoro-β-(3-fluorophenyl)-N-(5-fluoro-4-{2-[(2R,5S)-5-({[(2,2,2-trifluoroethyl)carbamoyl]oxy}methyl)morpholin-2-yl]ethyl}pyridin-3-yl)-Nα-(methoxycarbonyl)-L-phenylalaninamide]: at wildtype HIV-1 protease, the IC50 amounted to 1 nM. This compound came in with an EC50 in the test with HIV-1 (H9IIIB strain) of 15 nM.

`CC[C@@H](NC(=O)OC[C@@H]1CO[C@H](CCc2c(F)cncc2NC(=O)[C@@H](N)C(c2ccc(F)cc2)c2ccc(F)cc2)CN1)C(F)(F)F` [Example 216]: the IC50 on wildtype HIV-1 protease stood at 3.3 nM. The EC50 with HIV-1 (H9IIIB strain) is 2000 nM.

`COC(=O)N[C@H](C(=O)Nc1cccc(F)c1CC[C@@H]1CN[C@H](COC(=O)NCC(F)(F)F)CO1)[C@@H](c1ccc(F)cc1)c1cccc(F)c1` [Example 287]: the IC50 at wildtype HIV-1 protease is 6 nM. Also, the EC50 with HIV-1 (H9IIIB strain) came out at 17 nM.

`COC(=O)N[C@H](C(=O)Nc1cccc(F)c1CC[C@@H]1CN[C@H](COC(=O)NCC(F)(F)F)CO1)[C@H](c1ccccc1)c1cccc(OC)c1` [Example 305, (βR)-N-(3-fluoro-2-{2-[(2R,5S)-5-({[(2,2,2-trifluoroethyl)carbamoyl]oxy}methyl)morpholin-2-yl]ethyl}phenyl)-3-methoxy-Nα-(methoxy-carbonyl)-β-phenyl-L-phenylalaninamide]: the IC50 at wildtype HIV-1 protease is 230 nM. The same compound yielded a 50% effective concentration (EC50) with HIV-1 (H9IIIB strain) of 42 nM.

As to `O=C(NCC(F)(F)F)OC[C@@H]1CO[C@H](CCc2c(F)cncc2NC(=O)[C@@H](NC(=O)OCCF)C(c2ccc(F)cc2)c2ccc(F)cc2)CN1` [Example 279, 4-fluoro-Nα-[(2-fluoroethoxy)carbonyl]-β-(4-fluorophenyl)-N-(5-fluoro-4-{2-[(2R,5S)-5-({[(2,2,2-trifluoroethyl)carbamoyl]oxy}methyl)morpholin-2-yl]ethyl}pyridin-3-yl)-L-phenylalaninamide], the IC50 on wildtype HIV-1 protease came out at 1.9 nM. The same compound returned an EC50 in the test with HIV-1 (H9IIIB strain) of 57 nM.

Consider `N[C@H](C(=O)Nc1cccc(F)c1CC[C@@H]1CN[C@H](COC(=O)NCC(F)(F)F)CO1)[C@@H](c1ccc(F)cc1)c1cc(F)cc(F)c1` [Example 251, (βS)-3,5-difluoro-β-(4-fluorophenyl)-N-(3-fluoro-2-{2-[(2R,5S)-5-({[(2,2,2-trifluoroethyl)carbamoyl]oxy}methyl)morpholin-2-yl]ethyl}phenyl)-L-phenylalaninamide], for which the IC50 at wildtype HIV-1 protease was found to be 8.2 nM. The compound further showed an EC50 in the test with HIV-1 (H9IIIB strain) of 32 nM.

For `N[C@H](C(=O)Nc1cncc(F)c1CC[C@@H]1CN[C@H](COC(=O)NCC(F)(F)F)CO1)C(c1ccc(F)cc1)c1ccc(F)cc1` [Example 79, 4-Fluoro-β-(4-fluorophenyl)-N-(5-fluoro-4-{2-[(2R,5S)-5-({[(2,2,2-trifluoroethyl)carbamoyl]oxy}methyl)morpholin-2-yl]ethyl}pyridin-3-yl)-L-phenylalaninamide trihydrochloride], the IC50 on wildtype HIV-1 protease came out at 3.6 nM. The compound further registered an EC50 in the test on HIV-1 (H9IIIB strain) of 37 nM.

As to `N[C@H](C(=O)Nc1cncc(F)c1CC[C@@H]1CN[C@H](COC(=O)NCC(F)(F)F)CO1)[C@H](c1ccccc1)c1ccc(F)c(F)c1` [Example 259, (βR)-β-(3,4-difluorophenyl)-N-(5-fluoro-4-{2-[(2R,5S)-5-({[(2,2,2-trifluoroethyl)carbamoyl]oxy}methyl)morpholin-2-yl]ethyl}pyridin-3-yl)-L-phenylalaninamide], at wildtype HIV-1 protease, the IC50 is 5 nM. The compound further yielded an EC50 in the test with HIV-1 (H9IIIB strain) of 66 nM.

With `N[C@H](C(=O)Nc1cncc(F)c1CC[C@@H]1CN[C@H](COC(=O)NC2CCCOC2)CO1)C(c1ccc(F)cc1)c1ccc(F)cc1` (stereo partly drawn) [Example 253, 4-fluoro-β-(4-fluorophenyl)-N-(5-fluoro-4-{2-[(2R,5S)-5-{[(tetrahydro-2H-pyran-3-ylcarbamoyl)oxy]methyl}morpholin-2-yl]ethyl}pyridin-3-yl)-L-phenylalaninamide], the IC50 at wildtype HIV-1 protease was 7.7 nM. For the same compound, a half-maximal response in the test with HIV-1 (H9IIIB strain) (EC50) required 24 nM.

Turning to `N[C@H](C(=O)Nc1cccc(F)c1CC[C@@H]1CN[C@H](COC(=O)NCC(F)(F)F)CO1)C(c1cccc(F)c1)c1cccc(F)c1` [Example 262, 3-fluoro-β-(3-fluorophenyl)-N-(3-fluoro-2-{2-[(2R,5S)-5-({[(2,2,2-trifluoroethyl)carbamoyl]oxy}methyl)morpholin-2-yl]ethyl}phenyl)-L-phenylalaninamide], at wildtype HIV-1 protease, the IC50 came out at 4 nM. For the same compound, the response with HIV-1 (H9IIIB strain) was half-maximal at 15 nM (EC50).

As to `CC(C)COC(=O)N[C@H](C(=O)Nc1cncc(F)c1CC[C@@H]1CN[C@H](COC(=O)NCC(F)(F)F)CO1)C(c1ccc(F)cc1)c1ccc(F)cc1` [Example 140, 4-Fluoro-β-(4-fluorophenyl)-N-(5-fluoro-4-{2-[(2R,5S)-5-({[(2,2,2-trifluoroethyl)carbamoyl]oxy}methyl)morpholin-2-yl]ethyl}pyridin-3-yl)-Nα-[(2-methylpropoxy)carbonyl]-L-phenylalaninamide], the IC50 at wildtype HIV-1 protease was found to be 2.1 nM. For the same compound, the EC50 in the test with HIV-1 (H9IIIB strain) is 21 nM.

With `COC(=O)N[C@H](C(=O)Nc1cncc(F)c1CC[C@@H]1CNC(COC(=O)NCC(F)(F)F)CO1)[C@@H](c1ccc(F)cc1)c1cc(F)cc(F)c1` (stereo in doubt) [Example 91, (2S,3S)-2-(Methoxycarbonylamino)-3-(4-fluorophenyl)-3-(3,5-difluorophenyl)-N-(5-fluoro-4-(2-((2R,5R)-5-(2,2,2-trifluoroethylaminocarbonyloxymethyl)morpholine-2-yl)ethyl)pyridin-3-yl)propanamide], on wildtype HIV-1 protease, the IC50 was 3 nM. For the same compound, the EC50 in the test with HIV-1 (H9IIIB strain) stood at 16 nM.

`CS(=O)(=O)c1cccc([C@@H](CC(=O)Nc2cccc(F)c2CC[C@@H]2CN[C@H](COC(=O)NCC(F)(F)F)CO2)c2ccc(Cl)cc2)c1` [Example 164, [(3S,6R)-6-{2-[2-({(3S)-3-(4-chlorophenyl)-3-[3-(methylsulfonyl)phenyl]propanoyl}amino)-6-fluorophenyl]ethyl}morpholin-3-yl] methyl (2,2,2-trifluoroethyl)carbamate]: the IC50 at wildtype HIV-1 protease was 3.4 nM. In the test with HIV-1 (H9IIIB strain), this compound displayed an EC50 of 63 nM.

As for `COC(=O)N[C@H](C(=O)Nc1cncc(F)c1CC[C@@H]1CN[C@H](COC(=O)NCC(F)(F)F)CO1)[C@H](c1ccc(F)cc1)c1ccc(OC(F)(F)F)cc1` [Example 283], the IC50 at wildtype HIV-1 protease was 14 nM. Also, the EC50 with HIV-1 (H9IIIB strain) is 69 nM.
